Assay results published in patent publication EP1873155A1, “Inhibitors of the HIV integrase enzyme” (PFIZER INC., priority 2004, dated 2005).

The compounds below were run on RF strain of HIV-1 (assay: HIV-1 cell protection assay (XTT dye reduction)). Settings: Human immunodeficiency virus 1, CEM-SS, 144 h.
Assay type: cell-based
Experimental: Example 61: HIV-1 Cell Protection Assay
The antiviral activities of potential modulator compounds (test compounds) were determined in HIV-1 cell protection assays using the RF strain of HIV-1, CEM-SS cells, and the XTT dye reduction method (Weislow, O.S. et al., J. Natl. Cancer Inst. 81: 577-586 (1989)). Subject cells were infected with HIV-1 RF virus at an moi of 0.025 to 0.819 or mock infected with medium only and added at 2 x 10^4 cells per well into 96 well plates containing half-log dilutions of test compounds. Six days later, 50 µl of XTT solution (1 mg/ml XTT tetrazolium and […] phenazine methosulfate) were added to the wells and the plates were reincubated for four hours. Viability, as determined by the amount of XTT formazan produced, was quantified spectrophotometrically by absorbance at 450 nm.
Data from CPE assays were expressed as the percent of formazan produced in compound-treated cells compared to formazan produced in wells of uninfected, compound-free cells. […] The therapeutic index was calculated by dividing the cytotoxicity (CC50) by the antiviral activity (EC50).
Compound `O=C(NCc1ccccn1)c1cn(Cc2ccc(F)cc2)c2cnc3c(=O)n(O)ccc3c12` [Example 29, 3-(4-fluorobenzyl)-7-hydroxy-6-oxo-N-(pyridin-2-ylmethyl)-6,7-dihydro-3H-pyrrolo[2,3-c]-1,7-naphthyridine-1-carboxamide] has an EC50 of 35 nM.
With `O=C(c1cn(Cc2ccc(F)cc2)c2cnc3c(=O)n(O)ccc3c12)N1CCCC1` [Example 26, 3-(4-fluorobenzyl)-7-hydroxy-1-(pyrrolidin-1-ylcarbonyl)-3,7-dihydro-6H-pyrrolo[2,3-c]-1,7-naphthyridin-6-one] the EC50 was 5 nM.

Same assay, conditions: Human immunodeficiency virus 1, CEM-SS, 144 h, CEM-SS cells infected with HIV-1 RF, six days, XTT formazan; read-out: EC50
For `CN(Cc1ccccc1)Cc1cn(Cc2ccc(F)cc2)c2cnc3c(=O)n(O)ccc3c12` [Example 54, 1-{[benzyl(methyl)amino]methyl}-3-(4-fluorobenzyl)-7-hydroxy-3,7-dihydro-6H-pyrrolo[2,3-c]-1,7-naphthyridin-6-one], the EC50 was 0.42 nM.
`O=c1c2ncc3c(c(S(=O)(=O)NCCc4c[nH]c5ccccc45)cn3Cc3ccc(F)cc3)c2ccn1O` [Example 21, 3-(4-fluorobenzyl)-7-hydroxy-N-[2-(1 H-indol-3-yl)ethyl]-6-oxo-6,7-dihydro-3H-pyrrolo[2,3-c]-1,7-naphthyridine-1-sulfonamide] showed an EC50 of 480 nM.
In the case of `O=C1c2ncc3c(ccn3Cc3ccc(F)cc3)c2CCCN1O` [Example 45, 3-(4-fluorobenzyl)-7-hydroxy-7,8,9,10-tetrahydropyrrolo[3',2' :4,5]pyrido[2,3-c]azepin-6(3H)-one], the EC50 is reported as 20 nM.
Work on `O=c1c2ncc3c(c(COC4CCOCC4)cn3Cc3ccc(F)cc3)c2ccn1O` [Example 37, 3-(4-fluorobenzyl)-7-hydroxy-1-[(tetrahydro-2H-pyran-4-yloxy)methyl]-3,7-dihydro-6H-pyrrolo[2,3-c]-1,7-naphthyridin-6-one] yielded an EC50 of 1 nM.
For `O=C1CCN(Cc2cn(Cc3ccc(F)cc3)c3cnc4c(=O)n(O)ccc4c23)CCN1` [Example 19, 3-(4-fluorobenzyl)-7-hydroxy-1-[(5-oxo-1,4-diazepan-1-yl)methyl]-3,7-dihydro-6H-pyrrolo[2,3-c]-1,7-naphthyridin-6-one], the EC50 was 15 nM.
`O=C1CCCN1CC1(O)CCN(Cc2cn(Cc3ccc(F)cc3)c3cnc4c(=O)n(O)ccc4c23)CC1` [Example 18, 3-(4-fluorobenzyl)-7-hydroxy-1-({4-hydroxy-4-[(2-oxopyrrolidin-1-yl)methyl]piperidin-1-yl}methyl)-3,7-dihydro-6H-pyrrolo[2,3-c]-1,7-naphthyridin-6-one] was tested, and the EC50 was 67 nM.
With `CCN(CC)CCN(CC)Cc1cn(Cc2ccc(F)cc2)c2cnc3c(=O)n(O)ccc3c12` [Example 50, 1-{[[2-(diethylamino)ethyl](ethyl)amino]methyl}-3-(4-fluorobenzyl)-7-hydroxy-3,7-dihydro-6H-pyrrolo[2,3-c]-1,7-naphthyridin-6-one] the EC50 was 8.6 nM.
With `NC(=O)[C@H]1CCCN1Cc1cn(Cc2ccc(F)cc2)c2cnc3c(=O)n(O)ccc3c12` [Example 12, 1-{[3-(4-fluorobenzyl)-7-hydroxy-6-oxo-6,7-dihydro-3H-pyrrolo[2,3-c]-1,7-naphthyridin-1-yl]methyl}-D-prolinamide] the EC50 was 4 nM.
`CN(CCc1ccccn1)Cc1cn(Cc2ccc(F)cc2)c2cnc3c(=O)n(O)ccc3c12` [Example 16, 3-(4-fluorobenzyl)-7-hydroxy-1-{[methyl(2-pyridin-2-ylethyl)amino]methyl}-3,7-dihydro-6H-pyrrolo[2,3-c]-1,7-naphthyridin-6-one] gave an EC50 of 7 nM.
Work on `O=c1c2ncc3c(c(CNCc4ccccn4)cn3Cc3ccc(F)cc3)c2ccn1O` [Example 44, 3-(4-fluorobenzyl)-7-hydroxy-1-{[(pyridin-2-ylmethyl)amino]methyl}-3,7-dihydro-6H-pyrrolo[2,3-c]-1,7-naphthyridin-6-one] yielded an EC50 of 0.74 nM.
For `O=c1c2ncc3c(c(CN4CCOCC4)cn3Cc3ccc(F)cc3)c2ccn1O` [Example 57, 3-(4-fluorobenzyl)-7-hydroxy-1-(morpholin-4-ylmethyl)-3,7-dihydro-6H-pyrrolo[2,3-c]-1,7-naphthyridin-6-one], the EC50 was 0.32 nM.
